Results taken from US8399484B2, “Combination therapy for treating HCV infection” (priority 2008, dated 2013).
Structures can show the parent of a compound that is named as a salt. Where two headings read alike, the source gives them in different places.

Tests used:
[1] = tested on: R155K variants (genotype 1a NS3); assay: Drug sensitivity assay: HCV replicon shuttle vector with patient NS3 amplicons, luciferase, Huh-7.5 cells; format: cell-based; conditions: Hepatitis C virus, Huh7.5, read-out: range of EC50 values
Excerpt: (§1) A bicistronic HCV replicon shuttle vector (pIT2) comprising a luciferase reporter gene and an adapted Con-1 NS3/NS5B region was modified to create two unique restriction sites (Mlu I and Spe I) at NS3 codons 11 and 225 which enabled the insertion of compatible NS3 amplicons isolated from HCV-infected patient plasma samples. The first-round PCR product synthesized from the patient plasma-purified RNA (also used for generating fragments for population- and clonal-based sequencing) was used to amplify a 0.65 kbp fragment with primer pairs that respectively contain the unique MluI and SpeI restriction sites for insertion into the shuttle vector. Amplicons were ligated in the pIT2 shuttle vector and reconstituted plasmid DNA was used to generate HCV subgenomic replicon RNA transcripts (T7 RIBOMAX™ kit, Promega). […] At the end of the incubation, luciferase activity was measured with the BRIGHT-GLO™ substrate as the luminescence quantified (CPS) in each well of the culture plate reflected the amount of HCV RNA replication. […] The EC50 of mutant NS3 were compared to the baseline EC50 and used to generate fold-change values.

[2] = tested on: D168 variants (genotype 1b NS3); assay: as above; format: cell-based; conditions: Hepatitis C virus, Huh7.5, read-out: EC50 values
Excerpt: as §1

[3] = tested on: chronic hepatitis C genotype-1 infection; conditions: for Virologic rebound during the first 28 days of treatment: 240 mg qd + PegIFN/RBV
Protocol: (§2) The solvent was also used as the placebo.
A multiple rising dose study evaluated the safety and antiviral activity in P+R treatment-experienced patients (pts) with chronic hepatitis C genotype-1 infection for 28 days as combination therapy with P+R.
All patients were monitored for safety and tolerability of study drugs. The primary endpoint was a ≧2 log 10 reduction in HCV viral load (VL) from baseline at any time up to Day 28. Plasma HCV-RNA levels were measured using the Roche COBAS® TaqMan® assay (LLOQ 25 IU/mL). The treatment experienced patients in this study included P+R null responders and partial responders. After day 28, at the discretion of the investigator, patients could continue to receive standard of care treatment, i.e., P+R.

[4] = tested on: chronic HCV genotype-1 infection; conditions: for VL rebound during treatment in the first 14 days of monotherapy: all dose groups
Protocol: as §2
A multiple rising dose study evaluated safety and antiviral activity in treatment-naive patients (pts) with chronic HCV genotype-1 infection as monotherapy for 14 days followed by triple combination therapy with P+R for an additional 14 days.
Plasma HCV-RNA levels were measured with Roche COBAS® TaqMan® assay (LLOQ 25 IU/m L). After day 28, at the discretion of the investigator, patients could continue to receive standard of care treatment, i.e., P+R.

C=C[C@@H]1C[C@]1(NC(=O)[C@@H]1C[C@H](Oc2cc(-c3csc(NC(=O)C(C)C)n3)nc3c(Br)c(OC)ccc23)CN1C(=O)[C@@H](NC(=O)OC1CCCC1)C(C)(C)C)C(=O)O [Compound (1) sodium salt]
EC50 [1]: […] | EC50 [2]: […] | Virologic rebound during the first 28 days of treatment (patients) ([3]; 48 mg qd + PegIFN/RBV): 2/6 | Virologic rebound during the first 28 days of treatment (patients) ([3]; 120 mg qd + PegIFN/RBV): 1/7 | pts with VL<25 IU/mL at Day 28 ([3]; 240 mg qd + P+R): ⅚ | Virologic rebound during the first 28 days of treatment [3]: no rebound | Virologic rebound during the first 28 days of treatment ([3]; listed as BI 201335): No rebound | VL decline achieved with triple combination therapy ([3]; all pts, + P+R): > 2 log 10 | Discontinuation of treatment due to an AE ([3]; combination with P+R, AE anxiety): One subject discontinued | VL at next visit, Day 42 ([3]; sixth pt of the 240 mg qd cohort): < 25 IU/ml | VL rebound during treatment in the first 14 days of monotherapy [4]: majority of patients | VL rebound during treatment in the first 14 days of monotherapy ([4]; listed as Compound (1) (sodium salt)): majority of the patients | VL decline achieved during the monotherapy period ([4]; all pts on active except 1 pt in the 20 mg cohort): > 2 log 10 | Discontinuation of treatment due to adverse events ([4]; during monotherapy): No pts discontinued | Time of maximal decline of VL after starting treatment ([4]; monotherapy, typical): 2 to 4 days
